The values below come from patent publication US9289383B2, “Method of reducing intraocular pressure in humans” (Inotek Pharmaceuticals Corporation, priority 2010, dated 2016).

Series [1] is described as follows: In-vitro cornea permeability study (vertical diffusion apparatus). The series is classed as in vitro ADME, rabbit. The conditions noted are these: for CPA levels detected on the other side of the cornea membrane (receiver chamber): compound applied to donor side of rabbit cornea membrane, GBR buffer pH 7.4, 37° C.; for cornea permeability: topical delivery to cornea. The procedure:
The compounds (2a) and (2g) were prepared in powder form by Inotek Pharmaceuticals Corp. (Lexington, Mass.). Low-permeability control compound atenolol and all other chemicals were purchased from Sigma (St. Louis, Mo.). The buffer used in the permeability assessment was a glutathione-bicarbonated Ringer's (GBR) solution (110 mM NaCl, 5 mM KCl, 1 mM NaH2PO4, 30 mM NaHCO3, 1 mM CaCl2, 0.75 mM Mg Cl2, 5 mM D-glucose, and 0.3 mM reduced glutathione), pH 7.4, which was freshly prepared on the day of the experiment and oxygenated with O2/CO2 (95:5) to pH 7.4.
The compounds (2a) and (2g) were reconstituted in saline and diluted (10-fold) into the assay at a final concentration between 50 μM and 2.6 mM. Male Dutch-belted pigmented rabbits (1.5-2.5 kg body weight, 3-3.5 months old) were purchased from Covance Research Products Inc. (Denver, Pa.). The animal handling performed in this study conformed to the Guiding Principles in the Care and Use of Animals (DHEW Publication, NIH 80-23). The rabbits were euthanized by CO2 asphyxiation, and the heads were transported on ice to a testing facility, where dissection of the eyes was performed.
The corneal tissues were excised and mounted on a Harvard vertical diffusion apparatus as shown in FIG. 3 with a diffusion area of 0.64 cm2. Preheated (37° C.), pH 7.4. GBR buffer was added to the mucosal (1.5 mL) and the serosal (1.5 mL) chambers. The diffusion apparatus was maintained at 37° C. throughout the entire transport experiment. Oxygenation and agitation were achieved by bubbling O2/CO2 (95:5) through each chamber at a rate of 5-6 bubbles per second. After the 30-minute equilibration, blank GBR buffer in the mucosal (donor) chamber was withdrawn and replaced with GBR assay buffer containing the compound (2a) or the compound (2g). The transport experiments lasted 2 hours and were performed in duplicate. Every 60 minutes, 0.2-mL samples were collected from the serosal (receiver) chamber and replenished with 0.2-mL blank GBR buffer, except at the last time point; at the end of the experiment, samples were also collected from the mucosal (donor) chambers for mass balance determination.
After the transport experiment, tissue integrity (system suitability) was assessed by measuring the permeation of a low permeability control compound, atenolol, across the tissue. Donor chamber contents were replaced with GBR buffer containing 100μM atenolol, and receiver chambers were replaced with fresh blank GBR buffer. After 30 minutes of incubation, samples were collected from both chambers for analysis. The post-experimental system suitability assessment was considered acceptable if duplicate measurements yielded a mean apparent permeability (Papp) value for atenolol <1·10^−6 cm/s.
Compound A and compounds (2a) and (2g) and atenolol concentrations in the donor and receiver chambers were analyzed by LC-MS/MS methods. Apparent permeability (Papp) values were calculated using the following equation: Papp=(dCr/dt)·Vr/(A·C0)
Where, dCr /dt was the slope of the linear portion of the cumulative concentration in the receiver compartment over time in μM/sec, Vr was the volume of the receiver chamber in cm^3, A was the diffusion area in cm^2, and C0 was the measured dosing concentration in μM.
Recovery was calculated using the following equation: Recovery=100·([…])/(Vd·C0)
Where, Vr was the volume of the receiver compartment in cm^3, Vd was the volume of the donor compartment in cm^3, C0 was the dosing concentration in μM, Cr^final was the cumulative receiver concentration in μM and Cd^final was the donor concentration in μM at the end of the incubation.

Series [2] is described as follows: In vivo study of CPA concentration in the anterior chamber after topical administration to the cornea. The following applies: Dutch Belted rabbits, topical to the cornea (FIG. 4).
Series [3] relates to intraocular pressure. The following applies: topical in DMSO, three mice, cited from earlier work.
Series [4] concerns intraocular pressure. The following applies: CPA 165 μg; cited from earlier work.
Series [5] concerns optic nerve head tissue blood flow. The conditions noted are these: 10 nmol, injected intravitreally, rabbits; cited from earlier work.
Series [6] in a line: Analysis of human plasma after topical administration of Compound A. The series is classed as in vivo. The following applies: human subject, topical to the cornea, LC/MS/MS. The procedure: After the administration of Compound A topically to a cornea of a human, at selected time points (e.g., Day 1: pre-dose, 5, 15, 25, 35. and 45 min and 1, 2, 4, 8 and 24 hours) samples of whole blood (10 mL) were collected for pharmacokinetic assessments using a vacutainer tube containing sodium heparin as an anticoagulant, via catheter, saline lock, or by venipuncture. The blood components were separated by centrifugation at 4° C. following standard clinical laboratory procedures for preparation of plasma from whole blood (e.g., 3000 rpm for approximately 10 min). For each sample, approximately 1 mL of plasma was stored at −20° C. or colder until analysis for Compound A and CPA concentration. Human plasma samples were analyzed for Compound A concentrations using a validated liquid chromatography/tandem mass spectrometry (LC/MS/MS) method with a lower limit of quantitation (LLOQ) of 10.0 pg/mL and a linear range from 10.0 to 2000 pg/mL. Plasma concentrations of (N(6)-cyclopentyladenosine, CPA) were also measured in some samples using a validated LC/MS/MS method with a lower limit of quantitation of 10.0 pg/mL and a linear range from 10.0 to 2000 pg/mL.

Series [7] deals with intraocular pressure. Briefly: IOP of human subjects after topical administration of Compound A to the cornea. Type of series: in vivo. The text has this:
As a result of this analysis, CPA has been identified as an active metabolite in clinical studies after the topical administration of Compound A to the cornea of human subjects.

Where two headings read alike, the source gives them in different places.

With `OC[C@H]1O[C@@H](n2cnc3c(NC4CCCC4)ncnc32)[C@H](O)[C@@H]1O` [CPA, N^6-cyclopentyladenosine], the “CPA levels detected on the other side of the cornea membrane (receiver chamber)” value (shortened to “CPA levels detected on the other side”) in series [1] is given as “much less than that detected when Compound A is topically applied to the cornea”. In addition, the cornea permeability entry in series [1] was “does not have sufficient cornea permeability”. Also, in series [2], the “concentration of CPA in the anterior chamber over time” value is given as “build up in concentration of CPA in the anterior chamber over time”. Besides, the “change in IOP” value in the series on intraocular pressure [3] (CPA at 100 nM) was −6.8 mm Hg; in the series on intraocular pressure [3] (CPA at 1 mM), −1.0 mm Hg. In addition, the “effect on rabbit IOP” value with intraocular pressure [4] was “reduction of rabbit IOP”. In addition, the “optic nerve head tissue blood flow” value in series [5] was “increased the optic nerve head tissue blood flow”.

With `CCCCCCCC(=O)OC[C@H]1O[C@@H](n2cnc3c(NC4CCCC4)ncnc32)[C@H](O)[C@@H]1O` [Compound 2g, N^6-Cyclopentyl-5′-O-octanoyl-adenosine], in series [1], the “CPA levels detected on the other side” value is listed as “significant levels of CPA were measureable” and the cornea permeability entry is “significant cornea permeability”.

As for `O=[N+]([O-])OC[C@H]1O[C@@H](n2cnc3c(NC4CCCC4)ncnc32)[C@H](O)[C@@H]1O` [Compound A, ((2R,3S,4R,5R)-5-(6-(cyclopentylamino)-9H-purin-9-yl)-3,4-dihydroxytetrahydrofuran-2-yl)methyl nitrate], the “CPA levels detected on the other side” value in series [1] is reported as “significant levels of CPA on the other side of the cornea membrane”. Further, in series [6], the “CPA in plasma after administration of Compound A” value is listed as “detection of CPA in the plasma”. For the same compound, in the series with intraocular pressure [7], the “IOP course after buildup of CPA in plasma” value is given as “continues to decline” and the “transient elevation in IOP” value is “no transient elevation in IOP is seen”. The “concentration of CPA in the anterior chamber over time” value in series [2] was “build up in concentration of CPA in the anterior chamber over time”.

As to `CC(C)C(=O)OC[C@H]1O[C@@H](n2cnc3c(NC4CCCC4)ncnc32)[C@H](O)[C@@H]1O` [Compound 2a, N^6-Cyclopentyl-5′-O-isobutyryl-adenosine], in series [1], the “CPA levels detected on the other side” value is “significant levels of CPA were measureable” and the cornea permeability entry is recorded as “significant cornea permeability”.
